Measured values as given in publication PMC5979471, “Telomerase Inhibition by a New Synthetic Derivative of the Aporphine Alkaloid Boldine” (International Journal of Molecular Sciences, 2018).
Structures can show the parent of a compound that is named as a salt.

Target: T1, telomerase (catalytic subunit TERT) (Homo sapiens, UniProt O14746)
T1 construct: with telomerase RNA component TER (endogenous telomerase ribonucleoprotein in MCF7 lysate)
Assay: q-TRAP-ligand assay in MCF7 cell lysate, compound added before telomere elongation
Format: biochemical

T1 sequence (O14746 whole entry): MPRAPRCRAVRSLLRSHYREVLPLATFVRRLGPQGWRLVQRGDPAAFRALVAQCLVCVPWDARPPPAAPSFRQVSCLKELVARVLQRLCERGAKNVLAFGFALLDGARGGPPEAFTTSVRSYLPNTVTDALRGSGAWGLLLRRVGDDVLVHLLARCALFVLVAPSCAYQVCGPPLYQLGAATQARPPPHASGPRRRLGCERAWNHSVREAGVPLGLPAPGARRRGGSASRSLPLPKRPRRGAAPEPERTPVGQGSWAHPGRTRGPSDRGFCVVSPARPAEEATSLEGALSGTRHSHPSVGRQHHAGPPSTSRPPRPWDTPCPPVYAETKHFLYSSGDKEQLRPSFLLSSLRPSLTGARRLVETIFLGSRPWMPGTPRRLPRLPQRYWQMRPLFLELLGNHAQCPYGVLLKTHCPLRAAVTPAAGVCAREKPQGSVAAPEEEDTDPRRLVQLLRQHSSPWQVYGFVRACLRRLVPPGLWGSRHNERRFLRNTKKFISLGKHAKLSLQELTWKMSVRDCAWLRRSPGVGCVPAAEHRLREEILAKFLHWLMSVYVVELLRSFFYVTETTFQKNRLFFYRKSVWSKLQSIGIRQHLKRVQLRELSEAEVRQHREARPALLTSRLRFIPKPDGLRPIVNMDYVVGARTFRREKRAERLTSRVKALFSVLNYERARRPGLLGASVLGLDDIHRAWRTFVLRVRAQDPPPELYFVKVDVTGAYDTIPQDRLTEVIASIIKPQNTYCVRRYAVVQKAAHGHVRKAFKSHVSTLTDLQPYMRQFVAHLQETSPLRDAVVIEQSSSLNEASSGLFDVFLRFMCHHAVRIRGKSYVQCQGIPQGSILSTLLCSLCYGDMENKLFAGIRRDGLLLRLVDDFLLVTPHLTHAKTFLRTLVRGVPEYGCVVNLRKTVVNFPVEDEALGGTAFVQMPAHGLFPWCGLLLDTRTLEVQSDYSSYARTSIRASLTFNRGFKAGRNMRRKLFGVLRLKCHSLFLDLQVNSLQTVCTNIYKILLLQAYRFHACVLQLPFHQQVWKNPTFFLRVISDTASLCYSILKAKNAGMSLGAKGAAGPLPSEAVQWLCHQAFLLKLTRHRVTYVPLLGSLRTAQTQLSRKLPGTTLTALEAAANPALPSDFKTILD

Row | SMILES | IC50
1 | COc1cc2c(ccc3c(CCN(C)Cc4ccccc4)cc(O)c(OC)c32)cc1O [BSB, N-benzylsecoboldine hydrochloride] | 0.17 ± 0.1 µM
2 | COc1cc2c(cc1O)C[C@H]1c3c(cc(O)c(OC)c3-2)CCN1C [Boldine, 1,10-dimethoxy-2,9-dihydroxyaporphine] | 68 ± 2.5 µM
